Literature values as cited in patent publication US20220098283A1, “ACE2- and TMPRSS2-Targeted Compositions and Methods for Treating COVID-19” (priority 2020, published 2022).
Like-named read-outs stand apart in the source and are kept apart here.

Target: hACE2 (Homo sapiens, UniProt Q9BYF1)
Settings: 100 μM angiotensin II, 37° C., 2 hours

Chain of hACE2 (Q9BYF1 18-805): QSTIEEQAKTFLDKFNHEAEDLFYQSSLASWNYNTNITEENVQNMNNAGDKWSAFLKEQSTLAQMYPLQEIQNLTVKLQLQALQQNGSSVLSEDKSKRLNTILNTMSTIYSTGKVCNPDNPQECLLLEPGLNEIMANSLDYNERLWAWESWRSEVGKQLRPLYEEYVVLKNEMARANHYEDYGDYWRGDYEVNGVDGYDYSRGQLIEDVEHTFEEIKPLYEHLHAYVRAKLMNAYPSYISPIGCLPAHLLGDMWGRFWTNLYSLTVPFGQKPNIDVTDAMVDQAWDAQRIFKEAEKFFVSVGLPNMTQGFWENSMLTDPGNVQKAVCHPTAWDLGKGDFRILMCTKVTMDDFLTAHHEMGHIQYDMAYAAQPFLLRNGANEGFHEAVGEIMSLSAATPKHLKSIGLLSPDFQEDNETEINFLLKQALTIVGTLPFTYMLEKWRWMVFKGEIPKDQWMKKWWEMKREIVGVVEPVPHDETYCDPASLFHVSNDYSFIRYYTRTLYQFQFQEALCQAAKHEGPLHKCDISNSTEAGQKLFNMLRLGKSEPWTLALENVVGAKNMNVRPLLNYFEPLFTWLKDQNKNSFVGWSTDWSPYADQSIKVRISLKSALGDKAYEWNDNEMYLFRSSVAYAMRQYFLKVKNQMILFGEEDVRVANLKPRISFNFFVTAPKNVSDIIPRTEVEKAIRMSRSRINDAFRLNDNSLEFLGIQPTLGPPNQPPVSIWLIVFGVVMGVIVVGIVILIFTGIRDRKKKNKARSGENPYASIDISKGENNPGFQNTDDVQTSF

In the case of `O=C(O)CN(CCN(CC(=O)O)CC(=O)O)CC(=O)O` [EDTA], the “inhibition of hACE2 activity (angiotensin II cleavage)” value (inhibitor 10 mM) is given as “inhibits hACE2 activity”.
For `O=C(O)CC(Cc1ccccc1)C(=O)O` (centres unmarked) [benzyl succinate], the “inhibition of hACE2 activity (angiotensin II cleavage)” value (inhibitor 100 μM) is given as “none of lisinopril, captopril, enalaprilat, and benzyl succinate (a carboxypeptidase A inhibitor) inhibits hACE2 activity”.
